In patent US10793531B2, “Triazole derivatives and their use as PDE4 activators” (MIRONID LIMITED, priority 2015, dated 2020):

How the values were obtained:
MDCK cells = assay: Inhibition of in vitro cyst formation in MDCK cells (Experiment 3); format: cell-based, canine; settings: compound added every 2 days from day 0 to day 20, with forskolin and vasopressin; FIG. 7
Experimental: In this study, the well-established three-dimensional (3D) MDCK cell model was used to investigate the effects of PDE4 long form activators on the formation of kidney cysts and evaluate their potential in the treatment of polycystic kidney diseases. 3D cysts were generated based on the method of Mao et al. (Mao, Z., Streets, A. J., Ong, A. C. M. Am. J. Physiol. Renal Physiol. 300(6): F1375-F1384, 2011), with some modifications. MDCK cells (50,000 cells/well) were seeded into collagen (Life Technologies; final concentration 1 mg/mL), containing 17 mM NaOH in DMEM, supplemented with 2% (v/v) FBS, 2 mM L-glutamine and 2 mM L-glutamine, 1,000 U penicillin and 1,000 μg streptomycin (DMEM-2% FBS), on ice. Upon gelling at 37° C., 1 mL of DMEM-2% FBS was added along with the test compound indicated in the presence of 10 μM forskolin (Sigma) and 1 μg/mL [Arg^8]-vasopressin acetate salt (Sigma). Media was replenished every 2 days for 20 days; at every feed, test compound, forskolin and vasopressin were added.
Phase-contrast images were obtained on the Motic microscope (×200 magnification) every 2 days for 20 days. Per condition, 10 images were taken (in duplicate) and the average cyst radius measured.

[1] = system: androgen-sensitive (AS) LNCaP human prostate cancer cells; assay: Xcelligence proliferation assay, androgen-sensitive LNCaP cells (Experiment 5); format: cell-based; settings: normalised cell index at 72 hours; FIG. 9
Experimental: In this study, the potential utility of PDE4 long form activators in the treatment of prostate cancer was studied using the LNCaP human prostate cancer cell line. The experiments were carried out according to the method described by Henderson et al. (Henderson, D. J. P., Byrne, A., Dulla, K., Jenster, G., Hoffmann, R., Baillie, G. S., Houslay, M. D. Br. J. Cancer 110: 1278-1287, 2014).
Androgen-sensitive (AS) LNCaP cells were maintained in RPMI1640 supplemented with 10% FBS (Seralabs), 2 mM L-glutamine and 1,000 U penicillin-streptomycin. LNCaP androgen-insensitive (AI) cells were generated in-house by culturing the LNCaP-AS cells in RPMI1640 supplemented with 10% charcoal stripped FBS, 2 mM L-glutamine and 1,000 U penicillin-streptomycin for a minimum of four weeks. All tissue culture reagents were, from Life Technologies.
Cell proliferation is measured as a function of changing electrical impedance. Values are represented by cell index number, a dimensionless unit of measurement representing the cell status, which increases as cells adhere to 96-well electrode plates and divide. […]
Cell indices were measured every 10 minutes for up to 100 hours, analysed using RICA software and normalised to the cell index of vehicle-treated cells (n=3).

[2] = In vitro clearance using human hepatocytes (Experiment 6); format: in vitro ADME; settings: human, cryopreserved human hepatocytes; 1 μM compound, 1 million cells/ml, 37° C.
Experimental: (§1) Human hepatocyte stability is considered the gold standard method for evaluating the hepatic metabolism of drugs in vitro. The in vitro clearance of Example A was evaluated using cryopreserved human hepatocytes according to the method of Lau et al. (Lau, Y. Y. et al. Drug Metab. Dispos. 30: 1446-1454, 2002) with minor modifications.
(§2) Cryopreserved hepatocytes were thawed in a water bath at 37° C. and transferred to a tube containing 50 ml of hepatocyte thaw medium. The hepatocytes were centrifuged at 500 rpm for 3 min. The supernatant was removed and the hepatocytes were resuspended in medium, mixed gently and centrifuged again at 500 rpm for 3 min. The supernatant was discarded and the hepatocyte pellet was gently resuspended in medium to a final density of 2 million cells/ml.
(§3) Incubations were carried out at a final test compound concentration of 1 μM. Stock solutions of the compounds were prepared in DMSO and diluted to the desired concentrations before adding to the hepatocytes. Incubations were carried out with a hepatocyte concentration of 1 million cells/ml. Samples (100 μL) were incubated at 37° C. for 0, 15, 30, 60 and 120 min in duplicate. At the end of the incubation time, 200 μl of acetonitrile with internal standard was added and the wells were sealed. […]
(§4) The samples were analysed by LC-MS/MS using a Sciex API 4000™ system.

[3] = system: cryopreserved human hepatocytes; assay: as above; format: in vitro ADME; settings: 1 μM compound, 1 million cells/ml, 37° C.
Experimental: as §1, §2, §3, §4

half-life at 1 μM [2]: 54 min | stability in human hepatocytes (in words) [3]: moderately stable
SMILES: CCc1nc(-c2ccc(Cl)c(F)c2)nn1CC(=O)NCc1cccc(F)c1 [Example A, N-(3-Fluorobenzyl)-2-[3-(4-chloro-3-fluorophenyl)-5-ethyl-1H-1,2,4-triazol-1-yl]acetamide]
in vitro cyst formation in MDCK cells, inhibition (in words) (MDCK cells): inhibition of in vitro cyst formation | proliferation of androgen-sensitive (AS) LNCaP cells (in words) [1]: inhibits the proliferation
